Laboratory results from patent US10071042B2, “External dermatological agent for anti-ageing” (Hayashibara Co., Ltd., priority 2014, dated 2018).
Marks after values point to notes of the source that are not given here.

Assays:
[1] = test system: normal human epidermal keratinocytes; experiment: Production level of cornified envelope, absorbance 310 nm (Experiments 1-2 and 7); format: cell-based; conditions: for Production level (%) of cornified envelope: control = 100%
Procedure: Normal human epidermal keratinocytes were cultured similarly as in Experiment 1-1, except for adding the test substances listed in Table 2 at prescribed concentrations to the cells. The resulting cultured cells were washed once with phosphate buffered saline (PBS), followed by scrapping off the cells adhered to each culture plate by adding 0.5 mL of PBS to each well of the plates. The cell suspensions thus obtained were added with 10% sodium lauryl sulfate solution in a volume of ¼ of each of the suspension volumes, followed by stirring and freezing the resulting mixtures at −80° C. After thawing, the resulting mixtures were centrifuged at 12,000×g for 15 min, followed by collecting the cell precipitates which were then washed once with phosphate buffered saline containing 2% sodium lauryl sulfate. The resulting mixtures were centrifuged at 12,000×g for 15 min, followed by collecting the cells and suspending the collected cells with phosphate buffered saline containing 2% sodium lauryl sulfate and 20 mM dithiothreitol. The resulting cell suspensions were boiled in a boiling water bath for one hour and measured for absorbance at a wavelength of 310 nm to determine the production level of cornified envelope for each test system added with any of the test substances. A control system was provided similarly as above except for not adding any one of the test substances to the system, and determined for absorbance at a wavelength of 310 nm similarly as in the above to be regarded as 100%. The production level of cornified envelope for each test substance was relatively evaluated based on the following equation. Equation: Production level of cornified envelope (Relative value (%))=[(Absorbance of a sample with any one of test substances)/(Absorbance of Control)]×100
(§1) The experiment was repeated three times, and the data was subjected to the Dunnett's multiple comparisons with Control. The symbol “*” means a level of significance of p<0.01.
(§2) Except for adding the test substances listed in Tables 8 and 9 at respective concentrations shown in the tables, experiments were respectively conducted in accordance with the methods in Experiments 1-2 and 1-3 disclosed in the specification to examine the effect of the combination use of epigallocatechin gallate, which is used as an antioxidant for cosmetics, and sodium adenosine N1-oxide 5′-phosphate on the action of accelerating the cornified-envelope production and the action of enhancing the transglutaminase activity of sodium adenosine N1-oxide 5′-phosphate. A control system was provided and similarly treated as above except for not adding any test substance and was determined for both the increase rates of cornified-envelope production level and the transglutaminase activity, based on the following equations. Equation: Increase rate of cornified envelope production level (%)={[(Absorbance of a sample with any one of test substances)/(Absorbance of control)]×100}−100 Equation: Increase rate of transglutaminase (%)={[(Absorbance of a sample with any one of test substances)/(Absorbance of control)]×100}−100

[2] = test system: normal human epidermal keratinocytes; experiment: Differentiation of keratinocytes, microscopic morphology score (Experiment 1-1); format: cell-based; conditions: 3 days culture, mean of triplicate
Source text: To 12-well plates, one milliliter of a cell suspension with a cell density of 2.5×10^4 cells/mL prepared by suspending normal human epidermal keratinocytes in EpiLife, a product name of a medium for keratinocytes containing a growth factor, commercialized by Life Technologies, Inc., 9800 Medical Center Drive Rockville, Md. 20850 USA; followed by culturing the cells until prevailing up to about ½ of the bottom surface of each well. Thereafter, the culture medium in each well was replaced with a medium for keratinocytes free of growth factor and cultured for two days, and then replaced with a fresh medium for keratinocytes, which contained any one of the test substances in Table 1 at respective concentrations as indicated in the table, and then cultured for three days. As a control, a culture system was provided similarly as above except for not adding any of the test substances. Under a microscopic condition, cell morphology was observed and evaluated for the keratinocyte-differentiation-inducing ability based on the following criteria:
Score 1: The number of cells in a flattened form against the total cells is 50% or lower.
Score 2: The number of cells in a flattened form against the total cells is 50% or more.
Score 3: Nearly all of the cells are in an irregular shape and there appears some cells with gloss.
It means that the higher the score the more the cell differentiation was accelerated. Each experiment system was performed in a triplicate manner, followed by calculating a mean value for each system.

transglutaminase = experiment: Transglutaminase activity, fluorescein cadaverine uptake (Experiments 1-3 and 7); format: cell-based, human; conditions: for Transglutaminase activity (%): control = 100%
Procedure: Normal human epidermal keratinocytes were cultured similarly as in Experiment 1-1, except for adding the test substances as listed in Table 3 to respective culture systems. The cultured normal human epidermal keratinocytes were added with 100 μM of fluorescein cadaverine and allowed to stand for four hours. Thereafter, the resulting cells were washed once with phosphate buffered saline and further treated with cold methanol for 10 min for cell fixation. The fixed cells were washed thrice with cold methanol, followed by the addition of phosphate buffered saline. Fluorescein cadaverine taken in the cells via transglutaminase was analyzed with Cell Imaging Station, commercialized by Molecular Probes Life Technology, France, and the analyzed fluorescent intensities were regarded as transglutaminase activities. There was provided a control system similarly as in the above, except for not adding any of the test substances. The transglutaminase activity of each test substance was evaluated as a relative value determined with the following equation using the fluorescent intensity of the control system being regarded as 100%. Equation: Transglutaminase activity (relative value (%))=[(Fluorescent intensity of a sample with any one of test substances)/(Fluorescent intensity of control)]×100
as §1, §2

[3] = test system: normal human dermal fibroblasts (NHDF); experiment: Number of cells, cytometry kit (Experiment 5); format: cell-based; conditions: control = 100%
Source text: The number of cells was counted with a cytometry kit (or a staining method) and the variation of cell number when added with any one of the test substances, based on the value of control being regarded as 100%.

[4] = 15 μM, single use, increase over control

Transglutaminase activity (%) (transglutaminase; 400 μM)	Molecule	Score ([2]; 200 μM)	Score ([2]; 400 μM)	Score ([2]; 800 μM)	Number of cells (%) ([3]; 200 μM)	Number of cells (%) ([3]; 400 μM)	Number of cells (%) ([3]; 800 μM)	Score ([2]; 40 μM)	other results
269%	3′-α-Glucosyladenosine [reference compound]	0.0	0.0	0.0	98.9	101.1	107.2		Production level (%) of cornified envelope ([1]; 800 μM): 104.2%
33%	5′-α-Glucosyladenosine [reference compound]	0.0	0.0	0.0	104.0	103.4	93.4		
404* %	5′-α-glucosyl adenosine N1-oxide [5′-α-Glucosyladenosine N1-oxide]	2.0	2.0	3.0	108.1	102.1	102.6		Production level (%) of cornified envelope ([1]; 600 μM): 148.8* %

The next lines start with the molecule.

Molecule	Transglutaminase activity (%) (transglutaminase; 400 μM)	Score ([2]; 200 μM)	Score ([2]; 400 μM)	Score ([2]; 800 μM)	Number of cells (%) ([3]; 200 μM)	Number of cells (%) ([3]; 400 μM)	Number of cells (%) ([3]; 800 μM)	Score ([2]; 40 μM)	other results
3′-α-glucosyl adenosine N1-oxide [3′-α-Glucosyladenosine N1-oxide]					103.8	104.5	97.4	2.0	Production level (%) of cornified envelope ([1]; 200 μM): 141.4* %; Score ([2]; 80 μM): 2.0; Score ([2]; 160 μM): 3.0; Transglutaminase activity (%) (transglutaminase; 100 μM): 300%
Nc1ncnc2c1ncn2[C@@H]1O[C@H](COP(=O)(O)O)[C@@H](O)[C@H]1O [Adenosine 5′-phosphate, reference compound]	244%				93.7	89.9	96.0		Production level (%) of cornified envelope ([1]; 400 μM): 136.5%
Nc1c2ncn([C@@H]3O[C@H](CO)[C@@H](O)[C@H]3O)c2nc[n+]1[O-] [Adenosine N1-oxide, adenosine N1-oxide]								3.0	Production level (%) of cornified envelope ([1]; 25 μM): 178.7* %; Production level (%) of cornified envelope ([1]; 25 μM, listed as adenosine N-1 oxide): about 180%; Score ([2]; 10 μM): 2.0; Score ([2]; 20 μM): 3.0; Transglutaminase activity (%) (transglutaminase; 20 μM): 632* %; Transglutaminase activity (%) (transglutaminase; 20 μM, listed as adenosine N1-oxide): about 630%; Number of cells (%) ([3]; 5 μM): 98.5%; Number of cells (%) ([3]; 10 μM): 94.6%; Number of cells (%) ([3]; 20 μM): 94.4%
Nc1ncnc2c1ncn2[C@@H]1O[C@H](CO)[C@@H](O)[C@H]1O [Adenosine, reference compound]	360%	0.0	0.0		93.5	87.4	91.2		Production level (%) of cornified envelope ([1]; 400 μM): 101.7%; Score ([2]; 100 μM): 0.0
Nc1c2ncn([C@@H]3O[C@H](COP(=O)([O-])O)[C@@H](O)[C@H]3O)c2nc[n+]1[O-].[Na+] [Sodium adenosine N1-oxide 5′-phosphate, sodium adenosine N1-oxide 5′-phosphate]								3.0	Increase rate of cornified envelope formation level (%) [1, 4]: 2.8%; Production level (%) of cornified envelope ([1]; 25 μM): 178.7* %; Production level (%) of cornified envelope ([1]; 25 μM, listed as adenosine N1-oxide 5′-phosphate): about 180%; Score ([2]; 10 μM): 2.0; Score ([2]; 20 μM): 3.0; Increase rate of transglutaminase activity (%) (transglutaminase; [4]): 0.0%; Transglutaminase activity (%) (transglutaminase; 20 μM): 569* %; Transglutaminase activity (%) (transglutaminase; 20 μM, listed as sodium adenosine N1-oxide 5′-phosphate): about 570%; Number of cells (%) ([3]; 5 μM): 99.9%; Number of cells (%) ([3]; 10 μM): 99.5%; Number of cells (%) ([3]; 20 μM): 92.2%
